Tests used:
Adenosine receptor A2a = Adenosine receptor A2a (Homo sapiens, UniProt P29274)
[1] = target: Beta-1 adrenergic receptor (Homo sapiens, UniProt P08588); assay type: functional
[2] = target: T1, Type-1 angiotensin II receptor (Homo sapiens, UniProt P30556)
T1 sequence (P30556 whole entry): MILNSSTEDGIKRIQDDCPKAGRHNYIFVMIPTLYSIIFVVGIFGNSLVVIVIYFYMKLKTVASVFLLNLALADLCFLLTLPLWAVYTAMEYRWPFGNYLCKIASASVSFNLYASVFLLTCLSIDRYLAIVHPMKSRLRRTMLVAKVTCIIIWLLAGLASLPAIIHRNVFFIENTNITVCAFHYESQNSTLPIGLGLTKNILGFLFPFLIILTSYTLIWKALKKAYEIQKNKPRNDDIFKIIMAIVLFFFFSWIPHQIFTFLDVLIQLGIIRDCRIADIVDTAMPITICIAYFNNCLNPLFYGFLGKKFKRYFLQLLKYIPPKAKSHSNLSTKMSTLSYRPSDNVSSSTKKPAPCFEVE

[3] = target: T2, Muscarinic acetylcholine receptor M2 (Homo sapiens, UniProt P08172); assay type: functional, cell-based
T2 sequence (P08172 whole entry): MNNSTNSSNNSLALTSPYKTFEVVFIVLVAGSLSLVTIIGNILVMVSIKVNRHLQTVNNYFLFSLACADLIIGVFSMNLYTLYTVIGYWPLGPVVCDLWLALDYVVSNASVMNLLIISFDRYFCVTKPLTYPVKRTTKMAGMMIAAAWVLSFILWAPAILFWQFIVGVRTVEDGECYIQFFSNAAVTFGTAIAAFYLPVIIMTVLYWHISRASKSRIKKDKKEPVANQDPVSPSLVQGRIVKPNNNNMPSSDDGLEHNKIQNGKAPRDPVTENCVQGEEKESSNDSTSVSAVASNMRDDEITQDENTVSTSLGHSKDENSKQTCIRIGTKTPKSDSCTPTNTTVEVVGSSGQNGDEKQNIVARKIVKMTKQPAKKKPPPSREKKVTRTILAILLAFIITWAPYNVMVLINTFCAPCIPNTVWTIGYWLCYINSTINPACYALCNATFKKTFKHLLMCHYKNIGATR

[4] = target: Growth hormone secretagogue receptor type 1 (Homo sapiens, UniProt Q92847)
[5] = target: T3, 5-hydroxytryptamine receptor 3A (Homo sapiens, UniProt P46098); assay type: functional
T3 sequence (P46098 whole entry): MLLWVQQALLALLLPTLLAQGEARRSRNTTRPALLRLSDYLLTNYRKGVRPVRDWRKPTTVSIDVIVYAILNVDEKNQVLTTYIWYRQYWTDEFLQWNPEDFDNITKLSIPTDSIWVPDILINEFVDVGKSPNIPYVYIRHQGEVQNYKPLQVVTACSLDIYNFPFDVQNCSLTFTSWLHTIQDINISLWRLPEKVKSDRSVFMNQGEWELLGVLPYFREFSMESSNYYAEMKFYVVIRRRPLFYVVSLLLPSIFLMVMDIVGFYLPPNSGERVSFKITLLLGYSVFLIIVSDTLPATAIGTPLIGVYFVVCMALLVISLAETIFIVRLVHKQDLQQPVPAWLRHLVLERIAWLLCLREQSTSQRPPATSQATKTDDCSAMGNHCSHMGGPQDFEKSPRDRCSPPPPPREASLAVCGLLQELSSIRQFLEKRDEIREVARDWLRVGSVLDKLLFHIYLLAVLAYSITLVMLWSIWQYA

Motilin receptor = Motilin receptor (Homo sapiens, UniProt O43193)
[6] = target: 3',5'-cyclic-AMP phosphodiesterase 4D (Homo sapiens, UniProt Q08499); assay type: functional
[7] = target: T4, Equilibrative nucleoside transporter 1 (Homo sapiens, UniProt Q99808)
T4 sequence (Q99808 whole entry): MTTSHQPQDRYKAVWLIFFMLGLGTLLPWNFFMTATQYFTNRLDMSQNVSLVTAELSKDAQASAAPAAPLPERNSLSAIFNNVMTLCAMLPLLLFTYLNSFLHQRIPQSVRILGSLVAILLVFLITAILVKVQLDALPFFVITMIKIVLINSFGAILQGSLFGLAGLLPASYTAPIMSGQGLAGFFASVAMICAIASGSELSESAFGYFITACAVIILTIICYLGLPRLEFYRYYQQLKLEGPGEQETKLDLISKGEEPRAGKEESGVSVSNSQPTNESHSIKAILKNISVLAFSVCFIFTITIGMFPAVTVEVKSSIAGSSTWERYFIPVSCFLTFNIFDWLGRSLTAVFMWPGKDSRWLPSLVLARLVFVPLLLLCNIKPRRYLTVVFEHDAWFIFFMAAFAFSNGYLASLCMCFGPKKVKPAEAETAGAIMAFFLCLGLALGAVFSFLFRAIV

[8] = target: T5, Amine oxidase [flavin-containing] A (Homo sapiens, UniProt P21397); assay type: functional
T5 sequence (P21397 whole entry): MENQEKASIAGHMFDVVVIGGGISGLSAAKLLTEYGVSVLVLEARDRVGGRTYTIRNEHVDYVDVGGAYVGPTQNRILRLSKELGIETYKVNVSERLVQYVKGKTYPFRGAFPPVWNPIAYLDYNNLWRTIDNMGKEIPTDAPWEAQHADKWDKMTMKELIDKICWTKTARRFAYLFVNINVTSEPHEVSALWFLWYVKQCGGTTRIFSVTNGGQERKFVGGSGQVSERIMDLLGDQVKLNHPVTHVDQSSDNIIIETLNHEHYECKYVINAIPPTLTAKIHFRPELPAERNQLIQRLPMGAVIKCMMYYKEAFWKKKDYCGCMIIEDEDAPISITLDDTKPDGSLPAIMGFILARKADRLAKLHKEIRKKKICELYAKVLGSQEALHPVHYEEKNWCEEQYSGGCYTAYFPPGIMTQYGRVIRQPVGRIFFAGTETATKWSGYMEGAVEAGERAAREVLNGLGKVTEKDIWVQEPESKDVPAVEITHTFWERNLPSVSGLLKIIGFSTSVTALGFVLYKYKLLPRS

[9] = target: cGMP-inhibited 3',5'-cyclic phosphodiesterase 3A (Homo sapiens, UniProt Q14432); assay type: functional
Further: assay procedure not described here.

Adenosine receptor A2a, sequence (P29274 whole entry): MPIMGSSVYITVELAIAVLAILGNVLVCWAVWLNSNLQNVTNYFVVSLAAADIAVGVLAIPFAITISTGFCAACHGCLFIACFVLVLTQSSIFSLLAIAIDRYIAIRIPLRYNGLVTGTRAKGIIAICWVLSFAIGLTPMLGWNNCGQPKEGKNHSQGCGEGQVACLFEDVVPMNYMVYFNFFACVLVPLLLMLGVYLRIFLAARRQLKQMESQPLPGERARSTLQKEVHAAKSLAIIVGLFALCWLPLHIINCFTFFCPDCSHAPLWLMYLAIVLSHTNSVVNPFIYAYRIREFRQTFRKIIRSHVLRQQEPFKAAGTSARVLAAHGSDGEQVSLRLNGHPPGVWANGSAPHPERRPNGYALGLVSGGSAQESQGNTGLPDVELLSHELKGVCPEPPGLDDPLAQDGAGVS
Motilin receptor, sequence (O43193 whole entry): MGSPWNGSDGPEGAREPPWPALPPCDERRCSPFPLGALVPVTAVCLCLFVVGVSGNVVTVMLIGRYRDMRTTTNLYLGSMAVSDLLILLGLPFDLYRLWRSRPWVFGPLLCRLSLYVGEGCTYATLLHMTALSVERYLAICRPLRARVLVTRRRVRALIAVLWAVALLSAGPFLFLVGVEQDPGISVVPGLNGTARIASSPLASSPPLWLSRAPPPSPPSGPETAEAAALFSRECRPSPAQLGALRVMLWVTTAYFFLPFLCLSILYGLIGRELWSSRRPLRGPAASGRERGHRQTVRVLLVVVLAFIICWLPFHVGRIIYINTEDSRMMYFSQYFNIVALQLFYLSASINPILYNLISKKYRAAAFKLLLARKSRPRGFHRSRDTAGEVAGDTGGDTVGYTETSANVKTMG
Growth hormone secretagogue receptor type 1, sequence (Q92847 whole entry): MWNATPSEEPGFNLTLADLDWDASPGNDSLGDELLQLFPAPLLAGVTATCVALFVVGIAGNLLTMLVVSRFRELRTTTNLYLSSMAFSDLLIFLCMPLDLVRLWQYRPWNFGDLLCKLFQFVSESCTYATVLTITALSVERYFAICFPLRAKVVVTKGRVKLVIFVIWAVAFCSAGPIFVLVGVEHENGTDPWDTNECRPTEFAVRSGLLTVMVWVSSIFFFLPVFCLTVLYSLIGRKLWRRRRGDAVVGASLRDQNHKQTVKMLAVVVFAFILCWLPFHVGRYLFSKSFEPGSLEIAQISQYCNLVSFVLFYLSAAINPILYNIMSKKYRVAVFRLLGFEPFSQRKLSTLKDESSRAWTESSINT
Beta-1 adrenergic receptor, sequence (P08588 whole entry): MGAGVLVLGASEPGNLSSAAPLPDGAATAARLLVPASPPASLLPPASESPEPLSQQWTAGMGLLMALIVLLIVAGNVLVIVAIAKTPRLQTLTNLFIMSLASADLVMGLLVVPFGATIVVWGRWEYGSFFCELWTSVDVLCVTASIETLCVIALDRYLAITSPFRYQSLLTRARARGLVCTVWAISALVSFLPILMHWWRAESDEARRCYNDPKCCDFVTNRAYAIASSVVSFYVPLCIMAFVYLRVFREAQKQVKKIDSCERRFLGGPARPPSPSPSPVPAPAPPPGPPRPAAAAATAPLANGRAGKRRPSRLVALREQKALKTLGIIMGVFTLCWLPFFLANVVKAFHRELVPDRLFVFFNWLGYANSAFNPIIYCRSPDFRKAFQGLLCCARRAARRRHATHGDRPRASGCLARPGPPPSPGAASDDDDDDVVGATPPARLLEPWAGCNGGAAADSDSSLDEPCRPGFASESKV
3',5'-cyclic-AMP phosphodiesterase 4D, sequence (Q08499 whole entry): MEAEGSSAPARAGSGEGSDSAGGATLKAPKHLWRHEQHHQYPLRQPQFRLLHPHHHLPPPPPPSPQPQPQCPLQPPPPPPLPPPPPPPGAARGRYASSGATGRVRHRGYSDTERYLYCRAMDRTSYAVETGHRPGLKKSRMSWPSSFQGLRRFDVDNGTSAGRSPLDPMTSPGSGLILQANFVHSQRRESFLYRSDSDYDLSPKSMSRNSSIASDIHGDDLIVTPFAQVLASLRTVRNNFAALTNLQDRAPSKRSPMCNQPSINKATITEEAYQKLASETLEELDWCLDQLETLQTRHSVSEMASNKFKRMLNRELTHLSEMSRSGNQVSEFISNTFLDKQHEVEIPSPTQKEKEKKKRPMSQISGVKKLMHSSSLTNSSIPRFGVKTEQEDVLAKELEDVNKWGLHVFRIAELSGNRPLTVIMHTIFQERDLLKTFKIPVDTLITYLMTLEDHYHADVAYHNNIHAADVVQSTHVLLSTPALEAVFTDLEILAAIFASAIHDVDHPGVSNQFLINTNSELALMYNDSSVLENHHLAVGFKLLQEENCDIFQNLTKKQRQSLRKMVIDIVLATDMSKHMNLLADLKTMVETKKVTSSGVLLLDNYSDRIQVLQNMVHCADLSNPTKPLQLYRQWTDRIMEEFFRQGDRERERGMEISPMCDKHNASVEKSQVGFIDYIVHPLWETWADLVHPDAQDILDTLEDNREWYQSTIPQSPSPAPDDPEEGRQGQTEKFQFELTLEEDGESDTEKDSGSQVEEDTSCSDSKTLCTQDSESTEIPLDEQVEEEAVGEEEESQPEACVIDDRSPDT
cGMP-inhibited 3',5'-cyclic phosphodiesterase 3A, sequence (Q14432 whole entry): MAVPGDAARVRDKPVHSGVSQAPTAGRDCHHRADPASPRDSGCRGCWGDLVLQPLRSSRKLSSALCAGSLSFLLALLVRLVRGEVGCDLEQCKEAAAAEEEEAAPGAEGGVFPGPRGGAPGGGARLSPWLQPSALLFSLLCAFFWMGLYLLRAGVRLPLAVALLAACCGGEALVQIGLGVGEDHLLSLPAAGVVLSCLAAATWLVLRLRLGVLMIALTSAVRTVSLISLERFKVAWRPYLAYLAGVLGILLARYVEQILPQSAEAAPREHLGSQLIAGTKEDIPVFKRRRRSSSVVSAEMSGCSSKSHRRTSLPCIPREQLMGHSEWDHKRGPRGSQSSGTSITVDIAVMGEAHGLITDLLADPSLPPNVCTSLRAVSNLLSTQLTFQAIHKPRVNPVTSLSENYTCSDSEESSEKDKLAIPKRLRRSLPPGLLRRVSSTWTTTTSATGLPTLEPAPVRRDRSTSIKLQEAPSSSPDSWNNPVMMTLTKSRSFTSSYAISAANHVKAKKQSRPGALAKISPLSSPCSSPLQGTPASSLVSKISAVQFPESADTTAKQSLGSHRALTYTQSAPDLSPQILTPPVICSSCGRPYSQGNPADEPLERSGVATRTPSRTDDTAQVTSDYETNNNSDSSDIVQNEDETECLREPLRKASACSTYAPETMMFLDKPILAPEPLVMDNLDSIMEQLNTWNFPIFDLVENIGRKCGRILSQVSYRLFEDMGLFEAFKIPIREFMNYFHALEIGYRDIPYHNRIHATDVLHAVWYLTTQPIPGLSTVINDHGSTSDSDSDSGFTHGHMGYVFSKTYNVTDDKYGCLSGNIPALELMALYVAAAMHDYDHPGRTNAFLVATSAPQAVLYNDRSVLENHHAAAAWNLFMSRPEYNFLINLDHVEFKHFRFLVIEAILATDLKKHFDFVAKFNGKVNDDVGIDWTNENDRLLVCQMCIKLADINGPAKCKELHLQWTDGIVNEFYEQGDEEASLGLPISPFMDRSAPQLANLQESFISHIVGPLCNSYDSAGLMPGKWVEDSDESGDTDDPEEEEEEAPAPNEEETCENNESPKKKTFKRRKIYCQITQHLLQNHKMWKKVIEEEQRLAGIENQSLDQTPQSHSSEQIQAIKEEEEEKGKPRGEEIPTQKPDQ

| SMILES | AC50 (Adenosine receptor A2a) [µM] | AC50 [1] [µM] | AC50 [2] [µM] | AC50 [3] [µM] | AC50 [4] [µM] | AC50 [5] [µM] | AC50 (Motilin receptor) [µM] | AC50 [6] [µM] | AC50 [7] [µM] | AC50 [8] [µM] | AC50 [9] [µM] |
| --- | --- | --- | --- | --- | --- | --- | --- | --- | --- | --- | --- |
| COc1cc2nc(N(C)CCCNC(=O)C3CCCO3)nc(N)c2cc1OC (stereo not drawn) [ALFUZOSIN] | > 30 | > 30 | > 30 | > 30 | > 30 | > 30 | > 30 | > 30 | > 30 | > 30 | > 30 |
| CC(=O)Nc1ccc(O)cc1 [ACETAMINOPHEN] | > 30 | > 30 | > 30 | > 30 | > 30 | > 30 | > 30 | > 30 | > 30 | > 30 | > 30 |
| NCC(CC(=O)O)c1ccc(Cl)cc1 (stereo not drawn) [BACLOFEN] | > 30 | > 30 | > 30 | > 30 | > 30 | > 30 | > 30 | > 30 | > 30 | > 30 | > 30 |
| Cc1ccc(-c2cc(C(F)(F)F)nn2-c2ccc(S(N)(=O)=O)cc2)cc1 [CELECOXIB] | > 10 | > 10 | > 10 | > 10 | > 10 | > 30 | > 10 | 20 | 24.4 | > 10 | > 30 |
| Clc1ccc2nsnc2c1NC1=NCCN1 [TIZANIDINE] | > 30 | > 10 | > 30 | > 30 | > 30 | > 30 | > 10 | > 30 | > 30 | > 10 | > 30 |
| CCCSc1ccc2nc(NC(=O)OC)[nH]c2c1 [ALBENDAZOLE] | > 30 | > 10 | > 10 | > 10 | > 10 | > 30 | > 10 | > 30 | > 30 | > 10 | > 30 |
| CO[C@H]1C[C@@H]2CC[C@@H](C)[C@@](O)(O2)C(=O)C(=O)N2CCCC[C@H]2C(=O)O[C@H]([C@H](C)C[C@@H]2CC[C@@H](O)[C@H](OC)C2)CC(=O)[C@H](C)/C=C(\C)[C@@H](O)[C@@H](OC)C(=O)[C@H](C)C[C@H](C)/C=C/C=C/C=C/1C [SIROLIMUS] | > 30 | > 10 | > 30 | > 10 | > 30 | > 30 | > 10 | > 30 | 6.8 | 5.6 | > 30 |
| CCC(C)n1ncn(-c2ccc(N3CCN(c4ccc(OCC5COC(Cn6cncn6)(c6ccc(Cl)cc6Cl)O5)cc4)CC3)cc2)c1=O (stereo not drawn) [ITRACONAZOLE] | > 30 | > 30 | > 30 | > 30 | > 30 | > 30 | > 30 | 18 | > 30 | > 30 | > 30 |
